Results from patent US6806230B1, “Pyrimidine derivatives and herbicides containing them” (Kumiai Chemical Industry Co., Ltd., priority 1999, dated 2004).

These compounds were tested on barnyard grass (Eo) (assay: Test Example 1: herbicidal effects by flooded paddy field treatment). Settings: dose 100 g active ingredient per 10 ares, examined on the 21st day after treatment, standards of Table 44.
Format: in vivo
Parameters: herbicidal effects, Eo (barnyard grass):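 0-5 growth inhibition grade; 5 = over 90%; 4 = 70-90%; 3 = 50-70%; 2 = 30-50%; 1 = 10-30%; 0 = under 10%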
How it was run: (§1)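 Seeds were sown in puddled paddy soil in pots and flooded to 3 cm. The next day a water-diluted wettable powder was dripped onto the water surface at 100 g active ingredient per 10 ares. Plants grew in a greenhouse, and herbicidal effect was scored on a rating scale 21 days after treatment.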

SMILES | herbicidal effects, Eo (barnyard grass)
Cc1cccc(OCC(=O)N(C)C(c2cncnc2C(F)(F)F)C(C)C)c1 (racemic) [Compound 1-135] | 5
CCCN(C(=O)Cc1ccc(F)cc1)C(c1cncnc1C(F)(F)F)C(C)C (racemic) [1-181] | 5
CC(C)C(c1cncnc1C(F)(F)F)N(C)C(=O)Cc1ccc2c(c1)OCO2 (racemic) [Compound 1-146] | 5
Cc1ccc(C(c2cncnc2C(F)(F)F)N(C)C(=O)Cc2ccccc2)cc1 (racemic) [1-225] | 5
CCN(C(=O)Cc1ccc(C)cc1)C(c1cncnc1C(F)F)C(C)C (racemic) [Compound 1-171] | 5
Cc1ccc(OCC(=O)N(C)C(c2cncnc2C(F)(F)F)C(C)C)cc1 (racemic) [Compound 1-136] | 5
Cc1ccc(CC(=O)N(C)C(c2cncnc2C(F)(F)F)C2CCCC2)cc1 (racemic) [Compound 1-141] | 5
CC(C)c1ncncc1C(C(C)C)N(C)C(=O)Cc1ccc(Cl)cc1 (racemic) [Compound 1-130] | 5
CCN(C(=O)Cc1ccccc1)C(c1cncnc1C(F)F)C(C)C (racemic) [Compound 1-168] | 5
CSc1ncncc1C(C(C)C)N(C)C(=O)Cc1ccccc1 (racemic) [Compound 1-150] | 5
Cc1ccc(C(c2cncnc2C(F)(F)F)N(C)C(=O)Cc2ccc(F)cc2)cc1 (racemic) [1-226] | 5

These compounds were tested on monochoria (Mo) in the same assay as above. Settings: dose 100 g active ingredient per 10 ares, examined on the 21st day after treatment, standards of Table 44.
Format: in vivo
Parameters: herbicidal effects, Mo (monochoria):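 0-5 growth inhibition grade; 5 = over 90%; 4 = 70-90%; 3 = 50-70%; 2 = 30-50%; 1 = 10-30%; 0 = under 10%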
How it was run: as §1

SMILES | herbicidal effects, Mo (monochoria)
Cc1cccc(OCC(=O)N(C)C(c2cncnc2C(F)(F)F)C(C)C)c1 (racemic) [Compound 1-135] | 5
CCCN(C(=O)Cc1ccc(F)cc1)C(c1cncnc1C(F)(F)F)C(C)C (racemic) [1-181] | 5
CC(C)C(c1cncnc1C(F)(F)F)N(C)C(=O)Cc1ccc2c(c1)OCO2 (racemic) [Compound 1-146] | 5
Cc1ccc(C(c2cncnc2C(F)(F)F)N(C)C(=O)Cc2ccccc2)cc1 (racemic) [1-225] | 5
CCN(C(=O)Cc1ccc(C)cc1)C(c1cncnc1C(F)F)C(C)C (racemic) [Compound 1-171] | 5
Cc1ccc(OCC(=O)N(C)C(c2cncnc2C(F)(F)F)C(C)C)cc1 (racemic) [Compound 1-136] | 5
Cc1ccc(CC(=O)N(C)C(c2cncnc2C(F)(F)F)C2CCCC2)cc1 (racemic) [Compound 1-141] | 5
CC(C)c1ncncc1C(C(C)C)N(C)C(=O)Cc1ccc(Cl)cc1 (racemic) [Compound 1-130] | 5
CCN(C(=O)Cc1ccccc1)C(c1cncnc1C(F)F)C(C)C (racemic) [Compound 1-168] | 5
CSc1ncncc1C(C(C)C)N(C)C(=O)Cc1ccccc1 (racemic) [Compound 1-150] | 5
Cc1ccc(C(c2cncnc2C(F)(F)F)N(C)C(=O)Cc2ccc(F)cc2)cc1 (racemic) [1-226] | 5

The compounds below were run on barnyard grass (Ec) (assay: Test Example 2: herbicidal effects by upland soil treatment). Settings: dose 100 g active ingredient per 10 ares, examined on the 21st day after treatment, standards of Table 44.
Format: in vivo
Parameters: scale not given here
How it was run: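 Pre-emergence test: barnyard grass and green foxtail sown in upland soil, then soil surface sprayed with wettable-powder formulation at 100 g active ingredient per 10 ares (100 l per 10 ares). Grown in greenhouse; herbicidal effect scored on a rating scale 21 days after treatment.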

SMILES | herbicidal effects, Ec (barnyard grass)
Cc1cccc(OCC(=O)N(C)C(c2cncnc2C(F)(F)F)C(C)C)c1 (racemic) [Compound 1-135] | 5
CCCN(C(=O)Cc1ccc(F)cc1)C(c1cncnc1C(F)(F)F)C(C)C (racemic) [1-181] | 5
CC(C)C(c1cncnc1C(F)(F)F)N(C)C(=O)Cc1ccc2c(c1)OCO2 (racemic) [Compound 1-146] | 4
Cc1ccc(C(c2cncnc2C(F)(F)F)N(C)C(=O)Cc2ccccc2)cc1 (racemic) [1-225] | 5
CCN(C(=O)Cc1ccc(C)cc1)C(c1cncnc1C(F)F)C(C)C (racemic) [Compound 1-171] | 5
Cc1ccc(OCC(=O)N(C)C(c2cncnc2C(F)(F)F)C(C)C)cc1 (racemic) [Compound 1-136] | 5
Cc1ccc(CC(=O)N(C)C(c2cncnc2C(F)(F)F)C2CCCC2)cc1 (racemic) [Compound 1-141] | 5
CC(C)c1ncncc1C(C(C)C)N(C)C(=O)Cc1ccc(Cl)cc1 (racemic) [Compound 1-130] | 5
CCN(C(=O)Cc1ccccc1)C(c1cncnc1C(F)F)C(C)C (racemic) [Compound 1-168] | 5
CSc1ncncc1C(C(C)C)N(C)C(=O)Cc1ccccc1 (racemic) [Compound 1-150] | 5
Cc1ccc(C(c2cncnc2C(F)(F)F)N(C)C(=O)Cc2ccc(F)cc2)cc1 (racemic) [1-226] | 5

These compounds were tested on green foxtail (Se) in the same assay as above. Settings: dose 100 g active ingredient per 10 ares, examined on the 21st day after treatment, standards of Table 44.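 Note: 0-5 growth inhibition grade; 5 = over 90%; 4 = 70-90%; 3 = 50-70%; 2 = 30-50%; 1 = 10-30%; 0 = under 10%.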
Format: in vivo
Experimental: In a 80 cm^2 plastic pot, upland soil was filled, and seeds of barnyard grass (Ec) and green foxtail (Se) were sown and covered with soil. A wettable powder prepared in accordance with Formulation Example 1 was diluted with water and uniformly applied to the soil surface by means of a small size spray at a rate of 100 l per 10 ares, so that the dose of the active ingredient would be 100 g per 10 ares. Thereafter, cultivation was carried out in a green house, and on the 21st day after the treatment, the herbicidal effects were examined in accordance with the standards as identified in Table 44.

SMILES | herbicidal effects, Se (green foxtail)
Cc1cccc(OCC(=O)N(C)C(c2cncnc2C(F)(F)F)C(C)C)c1 (racemic) [Compound 1-135] | 5
CCCN(C(=O)Cc1ccc(F)cc1)C(c1cncnc1C(F)(F)F)C(C)C (racemic) [1-181] | 5
CC(C)C(c1cncnc1C(F)(F)F)N(C)C(=O)Cc1ccc2c(c1)OCO2 (racemic) [Compound 1-146] | 4
Cc1ccc(C(c2cncnc2C(F)(F)F)N(C)C(=O)Cc2ccccc2)cc1 (racemic) [1-225] | 5
CCN(C(=O)Cc1ccc(C)cc1)C(c1cncnc1C(F)F)C(C)C (racemic) [Compound 1-171] | 4
Cc1ccc(OCC(=O)N(C)C(c2cncnc2C(F)(F)F)C(C)C)cc1 (racemic) [Compound 1-136] | 5
Cc1ccc(CC(=O)N(C)C(c2cncnc2C(F)(F)F)C2CCCC2)cc1 (racemic) [Compound 1-141] | 5
CC(C)c1ncncc1C(C(C)C)N(C)C(=O)Cc1ccc(Cl)cc1 (racemic) [Compound 1-130] | 5
CCN(C(=O)Cc1ccccc1)C(c1cncnc1C(F)F)C(C)C (racemic) [Compound 1-168] | 5
CSc1ncncc1C(C(C)C)N(C)C(=O)Cc1ccccc1 (racemic) [Compound 1-150] | 5
Cc1ccc(C(c2cncnc2C(F)(F)F)N(C)C(=O)Cc2ccc(F)cc2)cc1 (racemic) [1-226] | 4

These compounds were tested on barnyard grass (Eo) (assay: Test Example 4: selectivity for a crop plant by flooded paddy field treatment). Settings: barnyard grass, dose 25 gai/10a, 21st day after treatment, index per Table 44.
Format: in vivo
Parameters: scale not given here
How it was run: (§2)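 Paddy soil in pots was puddled, weed seeds were sown, second-leaf-stage rice was transplanted, and the pots were flooded to 3 cm. The next day a water-diluted wettable powder was dropped onto the water surface at 25 g active ingredient per 10 ares. Herbicidal effect was scored on a rating scale 21 days after treatment in a greenhouse.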

SMILES | Eo (herbicidal effect index)
Cc1cccc(OCC(=O)N(C)C(c2cncnc2C(F)(F)F)C(C)C)c1 (racemic) [Compound 1-135] | 5
CCCN(C(=O)Cc1ccc(F)cc1)C(c1cncnc1C(F)(F)F)C(C)C (racemic) [1-181] | 5
CC(C)C(c1cncnc1C(F)(F)F)N(C)C(=O)Cc1ccc2c(c1)OCO2 (racemic) [Compound 1-146] | 5
Cc1ccc(C(c2cncnc2C(F)(F)F)N(C)C(=O)Cc2ccccc2)cc1 (racemic) [1-225] | 5
CCN(C(=O)Cc1ccc(C)cc1)C(c1cncnc1C(F)F)C(C)C (racemic) [Compound 1-171] | 5
Cc1ccc(OCC(=O)N(C)C(c2cncnc2C(F)(F)F)C(C)C)cc1 (racemic) [Compound 1-136] | 5
Cc1ccc(CC(=O)N(C)C(c2cncnc2C(F)(F)F)C2CCCC2)cc1 (racemic) [Compound 1-141] | 5
CC(C)c1ncncc1C(C(C)C)N(C)C(=O)Cc1ccc(Cl)cc1 (racemic) [Compound 1-130] | 5
CCN(C(=O)Cc1ccccc1)C(c1cncnc1C(F)F)C(C)C (racemic) [Compound 1-168] | 5
CSc1ncncc1C(C(C)C)N(C)C(=O)Cc1ccccc1 (racemic) [Compound 1-150] | 5
Cc1ccc(C(c2cncnc2C(F)(F)F)N(C)C(=O)Cc2ccc(F)cc2)cc1 (racemic) [1-226] | 5

What follows are compounds tested on monochoria (Mo) in the same assay as above. Settings: monochoria, dose 25 gai/10a, 21st day after treatment, index per Table 44.
Format: in vivo
Parameters: scale not given here
How it was run: as §2

SMILES | Mo (herbicidal effect index)
Cc1cccc(OCC(=O)N(C)C(c2cncnc2C(F)(F)F)C(C)C)c1 (racemic) [Compound 1-135] | 5
CCCN(C(=O)Cc1ccc(F)cc1)C(c1cncnc1C(F)(F)F)C(C)C (racemic) [1-181] | 5
CC(C)C(c1cncnc1C(F)(F)F)N(C)C(=O)Cc1ccc2c(c1)OCO2 (racemic) [Compound 1-146] | 5
Cc1ccc(C(c2cncnc2C(F)(F)F)N(C)C(=O)Cc2ccccc2)cc1 (racemic) [1-225] | 5
CCN(C(=O)Cc1ccc(C)cc1)C(c1cncnc1C(F)F)C(C)C (racemic) [Compound 1-171] | 5
Cc1ccc(OCC(=O)N(C)C(c2cncnc2C(F)(F)F)C(C)C)cc1 (racemic) [Compound 1-136] | 5
Cc1ccc(CC(=O)N(C)C(c2cncnc2C(F)(F)F)C2CCCC2)cc1 (racemic) [Compound 1-141] | 5
CC(C)c1ncncc1C(C(C)C)N(C)C(=O)Cc1ccc(Cl)cc1 (racemic) [Compound 1-130] | 5
CCN(C(=O)Cc1ccccc1)C(c1cncnc1C(F)F)C(C)C (racemic) [Compound 1-168] | 5
CSc1ncncc1C(C(C)C)N(C)C(=O)Cc1ccccc1 (racemic) [Compound 1-150] | 5
Cc1ccc(C(c2cncnc2C(F)(F)F)N(C)C(=O)Cc2ccc(F)cc2)cc1 (racemic) [1-226] | 5

What follows are compounds tested on rice (Or) in the same assay as above. Settings: rice transplanted at second leaf stage, dose 25 gai/10a, 21st day after treatment, index per Table 44.
Format: in vivo
Parameters: scale not given here
How it was run: as §2

SMILES | Or (herbicidal effect index on crop)
Cc1cccc(OCC(=O)N(C)C(c2cncnc2C(F)(F)F)C(C)C)c1 (racemic) [Compound 1-135] | 1
CCCN(C(=O)Cc1ccc(F)cc1)C(c1cncnc1C(F)(F)F)C(C)C (racemic) [1-181] | 1
CC(C)C(c1cncnc1C(F)(F)F)N(C)C(=O)Cc1ccc2c(c1)OCO2 (racemic) [Compound 1-146] | 1
Cc1ccc(C(c2cncnc2C(F)(F)F)N(C)C(=O)Cc2ccccc2)cc1 (racemic) [1-225] | 0
CCN(C(=O)Cc1ccc(C)cc1)C(c1cncnc1C(F)F)C(C)C (racemic) [Compound 1-171] | 1
Cc1ccc(OCC(=O)N(C)C(c2cncnc2C(F)(F)F)C(C)C)cc1 (racemic) [Compound 1-136] | 1
Cc1ccc(CC(=O)N(C)C(c2cncnc2C(F)(F)F)C2CCCC2)cc1 (racemic) [Compound 1-141] | 1
CC(C)c1ncncc1C(C(C)C)N(C)C(=O)Cc1ccc(Cl)cc1 (racemic) [Compound 1-130] | 1
CCN(C(=O)Cc1ccccc1)C(c1cncnc1C(F)F)C(C)C (racemic) [Compound 1-168] | 1
CSc1ncncc1C(C(C)C)N(C)C(=O)Cc1ccccc1 (racemic) [Compound 1-150] | 1
Cc1ccc(C(c2cncnc2C(F)(F)F)N(C)C(=O)Cc2ccc(F)cc2)cc1 (racemic) [1-226] | 1
